# Measured values: publication PMC11956004 (2025)
# Starred links: 1 amine or outer side, 2 acyl side, 3 side chain; linkers in the order of their positions; H or OH if unused. Positions of bridges follow the written chain, without caps; N, C: chain ends. Non-standard residues stand in square brackets, D forms with d. Residues, ends and D or L forms follow the SMILES beside them. Chains are numbered I, II in the order given. Actinocin(9to1) = Cc1c2oc3c(C)ccc(C(=O)[*:1])c3nc-2c(C(=O)[*:2])c(N)c1=O; NMeV = CN[C@H](C(=O)O)C(C)C; Sar = CNCC(=O)O
# How the values were obtained:
# [1] = test system: AAAAGCCGAAAA (DNA, duplex) AAAAGCCGAAAA/TTTTCGGCTTTT; test: CD titration; conditions: Mg2+ 5 mM, Na+ (50 mM sodium cacodylate); 50 mM sodium cacodylate pH 7.2; 20 μM duplex, drug 1-4 equivalents
# [2] = test system: AAAGCACGAAAA (DNA, duplex) AAAGCACGAAAA/TTTTCGTGCTTT; test: CD titration; conditions: Mg2+ 5 mM, Na+ (50 mM sodium cacodylate); 50 mM sodium cacodylate pH 7.2; 20 μM duplex, drug 1-4 equivalents
# [3] = test system: AAAGCAACGAAA (DNA, duplex) AAAGCAACGAAA/TTTCGTTGCTTT; test: CD titration; conditions: Mg2+ 5 mM, Na+ (50 mM sodium cacodylate); 50 mM sodium cacodylate pH 7.2; 20 μM duplex, drug 1-4 equivalents
# [4] = test system: AAGCAAACGAAA (DNA, duplex) AAGCAAACGAAA/TTTCGTTTGCTT; test: CD titration; conditions: Mg2+ 5 mM, Na+ (50 mM sodium cacodylate); 50 mM sodium cacodylate pH 7.2; 20 μM duplex, drug 1-4 equivalents
# [5] = test system: d(AGCCGT)2 (DNA, duplex) AGCCGT/ACGGCT; test: X-ray crystallography (1.57 Å); conditions: Mn2+ 3 mM, Li+ 30 mM, 25 mM MES pH 6.5, 3% PEG400, 20 °C
# [6] = test system: AAAAGCCGAAAA (DNA, duplex) AAAAGCCGAAAA/TTTTCGGCTTTT; test: fluorescence quenching of Dox, Hill fit; conditions: Mg2+ 5 μM (so in the source); 50 μM Na cacodylate pH 7.3 (so in the source); 1 μM Dox alone, apparent; Kd decreases when ActD added
SMILES,binding [1],binding [2],binding [3],binding [4],"binding ([5]; ternary complex with doxorubicin, intercalated at G2pC3)","binding ([5]; ternary complex with actinomycin D, intercalated at C4pG5)",Kd [6]
"Cc1c2oc3c(C)ccc(C(=O)N[C@@H]4C(=O)N[C@H](C(C)C)C(=O)N5CCC[C@H]5C(=O)N(C)CC(=O)N(C)[C@@H](C(C)C)C(=O)O[C@@H]4C)c3nc-2c(C(=O)N[C@@H]2C(=O)N[C@H](C(C)C)C(=O)N3CCC[C@H]3C(=O)N(C)CC(=O)N(C)[C@@H](C(C)C)C(=O)O[C@@H]2C)c(N)c1=O (I: T[dV]P[Sar][NMeV] / II: T[dV]P[Sar][NMeV]; ester I:1-I:C, II:1-II:C; linker I:N-II:N via Actinocin(9to1))",yes,yes,yes,yes,yes,,
COc1cccc2c1C(=O)c1c(O)c3c(c(O)c1C2=O)C[C@@](O)(C(=O)CO)C[C@@H]3O[C@H]1C[C@H](N)[C@H](O)[C@H](C)O1,yes,yes,yes,yes,,yes,2.13 µM
